Reference: patent US11654196B2, “Dosing regimens for echinocandin class compounds” (priority 2012, dated 2023)
Read-outs that look alike come from different tables or passages of the source. *1 amine or outer side, *2 acyl side, *3 side chain or, on linkers, in order; H or OH if unused. Where a SMILES comes first, the peptide text is derived from it. Bridges are numbered along the chain shown (N, C = ends). [ ]: non-standard residue; d: D form. The star is where a group is joined. pTerphenylCO(4''-OnC5H11) = CCCCCOc1ccc(-c2ccc(-c3ccc(C(=O)*)cc3)cc2)cc1; Orn(4R-OH,5R-OH) = O=C([C@H](C[C@@H](O)[C@@H](O)N[*:3])N[*:1])[*:2]; hTyr(3S-OH,4S-OH) = N[C@H](C(=O)O)[C@H](O)[C@@H](O)c1ccc(O)cc1; Pro(3S-OH,4S-Me) = C[C@H]1CN[C@H](C(=O)O)[C@H]1O; Hyp = O=C(O)[C@@H]1C[C@@H](O)CN1

Tests used:
[1] = Pharmacokinetics following intravenous administration in beagle dogs; assay type: in vivo; conditions: 1.4 mg/kg IV slow bolus
Procedure: Echinocandin class compounds were administered to beagle dogs weighing approximately 6-10 kg. Each compound was dosed at 1.4 mg/kg in aqueous saline (with or without 0.5% Tween) over course of 1-10 minutes. […] The dogs were fasted at least 12 hours prior to each dosing and offered food after the 4-hour blood sample was taken; water was withheld for 1 hour prior to and 4 hours following each dosing event. The dose for each animal was based on its most recent body weight. The test article was injected intravenously via a catheter placed in the cephalic vein as a slow bolus.
Blood was collected via the jugular vein. All blood samples (1 mL each) were collected into K3EDTA tubes. Following blood collection, the samples were immediately inverted several times and were held on wet ice pending centrifugation. The samples were centrifuged within 30 minutes of collection under refrigeration (˜5° C. for 10 minutes at 2000 g) to obtain plasma. The plasma was frozen immediately on dry ice after separation. The plasma samples were stored at approximately ˜70° C. until analysis.
Plasma (100 μL) was precipitated with 400 μL of 0.1% formic acid in acetonitrile containing the internal standard (100 ng/mL pneumocandin). The samples were then capped and vortexed for about 30 seconds followed by centrifugation at 14,000 rpm at room temperature for 10 minutes. Following centrifugation 200 μL of supernatant was transferred to plastic autosampler vials containing 200 μL of 0.1% formic acid in water and vortexed. Samples were then analyzed by LCMSMS.
All pharmacokinetic calculations were performed using WinNonlin version 4.1 (Pharsight Corp) by noncompartmental analysis.

Stability in dog plasma = assay type: in vitro ADME
Procedure: (§1) Stock solutions of compound 22 and anidulafungin were prepared in DMSO at a concentration of 1 mg/mL. Plasma samples were prepared by mixing plasma with 10% volume of 1 M sodium phosphate, pH 7.4, to minimize pH fluctuation, and stock solution to produce plasma samples containing approximately 10,000 ng/mL compound 22 or anidulafungin. For the stability experiments in PBS buffer, plasma was replaced with phosphate buffered saline, pH 7.4. The DMSO concentration was 1% in the final incubation. Multiple individual aliquots (0.5 mL each) were prepared, capped, and incubated at 37° C. At each stability time point, the reaction was stopped by removing the sample from the incubator and adding 0.5 mL of acetonitrile containing internal standard. Samples were centrifuged for approximately 5 minutes at 10000 rpm to precipitate the proteins. Stability was measured in five different matrices (i.e. rat plasma, dog plasma, monkey plasma, human plasma, and PBS). An aliquot (100 μL) of supernatant of each sample was assayed by HPLC. The percentage of anidulafungin and compound 22 remaining at each time point was calculated by dividing the peak area ratio at each time point by the peak area ratio at time zero.

[2] = Circulating half-life in rat; assay type: in vivo; conditions: assays conducted by applicant
Stability in rat plasma = assay type: in vitro ADME
Procedure: as §1

[3] = Pharmacokinetics in chimpanzee, IV dose; conditions: in vivo
Procedure: Pharmacokinetic studies were performed in six adult female chimpanzees. Two chimpanzees received 1-mg/kg IV dose of compound 22 formulated in 5% dextrose (60-minute infusion). Two chimpanzees received 10-mg/kg oral dose of compound 22 formulated in 5% citric acid (oral bolus). Two chimpanzees received 1-mg/kg IV dose of anidulafungin formulated as package label (5% dextrose, 60-minute infusion). Plasma samples were collected from all chimps for 10 days to 22 days. PK curves are depicted in FIGS. 16A, 16B, and 18. All pharmacokinetic calculations were performed using WinNonlin version 4.1 (Pharsight Corp) by noncompartmental analysis.

[4] = Circulating half-life in chimpanzee; assay type: in vivo; conditions: assays conducted by applicant
[5] = Circulating half-life in dog; assay type: in vivo; conditions: assays conducted by applicant
[6] = Stability in phosphate buffered saline (PBS); assay type: physicochemical
Procedure: as §1

[7] = Stability in monkey plasma; assay type: in vitro ADME
Procedure: as §1

[8] = Solubility in aqueous media of varying pH; assay type: physicochemical; conditions: for solubility: ambient temperature, compound 22 as acetate salt, salt free equivalent
[9] = Circulating half-life in monkey; assay type: in vivo; conditions: assays conducted by applicant
[10] = Stability in human plasma; assay type: in vitro ADME
Procedure: as §1

[11] = in vivo, read-out: Half-life (converted)

CCCCCOc1ccc(-c2ccc(-c3ccc(C(=O)N[C@H]4C[C@@H](O)[C@@H](O)NC(=O)[C@@H]5[C@@H](O)[C@@H](C)CN5C(=O)[C@H]([C@@H](C)O)NC(=O)[C@H]([C@H](O)[C@@H](O)c5ccc(O)cc5)NC(=O)[C@@H]5C[C@@H](O)CN5C(=O)[C@H]([C@@H](C)O)NC4=O)cc3)cc2)cc1 [Anidulafungin, anidulafungin, reference compound] ({pTerphenylCO(4''-OnC5H11)}-[Orn(4R-OH,5R-OH)]T[Hyp][hTyr(3S-OH,4S-OH)]T[Pro(3S-OH,4S-Me)]; lactam 1-C)
Mean clearance [1]: 0.785 mL/min/kg | T1/2 [1]: 11.6 h | Volume of Distribution [1]: 0.779 L/kg | AUC ([1]; dog, in vivo, read-out: AUC): 27800 ng·h/mL | Cmax ([1]; dog, in vivo, read-out: Cmax): 3230 ng/mL | % remaining (Stability in dog plasma; dog plasma, 37° C., 0 h): 100% | % remaining (Stability in dog plasma; dog plasma, 37° C., 1 h): 100% | % remaining (Stability in dog plasma; dog plasma, 37° C., 2 h): 94.8% | % remaining (Stability in dog plasma; dog plasma, 37° C., 4 h): 77.1% | % remaining (Stability in dog plasma; dog plasma, 37° C., 8 h): 81.1% | % remaining (Stability in dog plasma; dog plasma, 37° C., 21 h): 47.2% | % remaining (Stability in dog plasma; dog plasma, 37° C., 44 h): 14.6% | Half-life [2, 11]: 22 h | % remaining (Stability in rat plasma; rat plasma, 37° C., 0 h): 100% | % remaining (Stability in rat plasma; rat plasma, 37° C., 1 h): 84.3% | % remaining (Stability in rat plasma; rat plasma, 37° C., 2 h): 76.5% | % remaining (Stability in rat plasma; rat plasma, 37° C., 4 h): 45.6% | % remaining (Stability in rat plasma; rat plasma, 37° C., 8 h): 23.2% | % remaining (Stability in rat plasma; rat plasma, 37° C., 21 h): 7.3% | % remaining (Stability in rat plasma; rat plasma, 37° C., 44 h): 7.4% | clearance ([3]; female, chimpanzees, 1-mg/kg IV 60-minute infusion, mean of 2 chimps, read-out: Clearance (converted)): 0.417 mL/min/kg | Half-life ([3]; female, chimpanzees, 1-mg/kg IV 60-minute infusion, mean of 2 chimps, read-out: Plasma half-life (IV) (converted)): 30 h | Vd ([3]; female, chimpanzees, 1-mg/kg IV 60-minute infusion, mean of 2 chimps, read-out: Volume of distribution): 1.1 L/kg | Half-life ([4]; in vivo, iv, 1 mg/kg, read-out: Half-life (converted)): 30 h | Half-life ([5]; beagle, in vivo, read-out: Half-life (converted)): 12 h | % remaining ([6]; PBS pH 7.4, 37° C., 0 h): 100% | % remaining ([6]; PBS pH 7.4, 37° C., 1 h): 100% | % remaining ([6]; PBS pH 7.4, 37° C., 2 h): 97.8% | % remaining ([6]; PBS pH 7.4, 37° C., 4 h): 87.4% | % remaining ([6]; PBS pH 7.4, 37° C., 8 h): 86.0% | % remaining ([6]; PBS pH 7.4, 37° C., 21 h): 68.9% | % remaining ([6]; PBS pH 7.4, 37° C., 44 h): 41.9% | % remaining ([7]; monkey plasma, 37° C., 0 h): 100% | % remaining ([7]; monkey plasma, 37° C., 1 h): 106% | % remaining ([7]; monkey plasma, 37° C., 2 h): 111% | % remaining ([7]; monkey plasma, 37° C., 4 h): 68.1% | % remaining ([7]; monkey plasma, 37° C., 8 h): 76.0% | % remaining ([7]; monkey plasma, 37° C., 21 h): 22.4% | % remaining ([7]; monkey plasma, 37° C., 44 h): 13.8% | solubility ([8]; Sterile Water for injection, read-out: Solubility): < 0.01 mg/mL | solubility ([8]; aqueous buffer, Acetate buffer (0.01M, pH 4.5), read-out: Solubility): < 0.01 mg/mL | solubility ([8]; aqueous buffer, Acetate buffer (0.01M, pH 5.5), read-out: Solubility): < 0.01 mg/mL | solubility ([8]; aqueous buffer, Tris buffer (0.01M, pH 8.5), read-out: Solubility): < 0.01 mg/mL | solubility ([8]; aqueous with cosolvent or surfactant or cyclodextrin, 90% Water:10% glycerol, read-out: Solubility): < 0.01 mg/mL | Half-life [9, 11]: 8 h | % remaining ([10]; human plasma, 37° C., 0 h): 100% | % remaining ([10]; human plasma, 37° C., 1 h): 102% | % remaining ([10]; human plasma, 37° C., 2 h): 98.0% | % remaining ([10]; human plasma, 37° C., 4 h): 61.8% | % remaining ([10]; human plasma, 37° C., 8 h): 72.0% | % remaining ([10]; human plasma, 37° C., 21 h): 51.2% | % remaining ([10]; human plasma, 37° C., 44 h): 7.3%

CC(=O)[O-].CCCCCOc1ccc(-c2ccc(-c3ccc(C(=O)NC4CC(O)C(OCC[N+](C)(C)C)NC(=O)C5C(O)C(C)CN5C(=O)C(C(C)O)NC(=O)C(C(O)C(O)c5ccc(O)cc5)NC(=O)C5CC(O)CN5C(=O)C(C(C)O)NC4=O)cc3)cc2)cc1 (stereo not drawn) [Compound 22]
AUC [1]: 48700 ng·h/mL | Cmax [1]: 1570 ng/mL | Mean clearance [1]: 0.301 mL/min/kg | T1/2 [1]: 53.1 h | Volume of Distribution [1]: 1.36 L/kg | % remaining (Stability in dog plasma; dog, plasma, 0 h): 100% | % remaining (Stability in dog plasma; dog, plasma, 1 h): 97.9% | % remaining (Stability in dog plasma; dog, plasma, 2 h): 107% | % remaining (Stability in dog plasma; dog, plasma, 4 h): 119% | % remaining (Stability in dog plasma; dog, plasma, 8 h): 94.0% | % remaining (Stability in dog plasma; dog, plasma, 21 h): 87.3% | % remaining (Stability in dog plasma; dog, plasma, 44 h): 78.6% | Half-life [2]: 30 h | % remaining (Stability in rat plasma; rat, plasma, 0 h): 100% | % remaining (Stability in rat plasma; rat, plasma, 1 h): 103% | % remaining (Stability in rat plasma; rat, plasma, 2 h): 106% | % remaining (Stability in rat plasma; rat, plasma, 4 h): 138% | % remaining (Stability in rat plasma; rat, plasma, 8 h): 99.3% | % remaining (Stability in rat plasma; rat, plasma, 21 h): 96.5% | % remaining (Stability in rat plasma; rat, plasma, 44 h): 91.2% | Clearance used to calculate human circulating concentrations ([3]; human): 0.0567 mL/min/kg | Plasma half life used to calculate human circulating concentrations ([3]; human): 80 h | Clearance compared with anidulafungin [3]: lower clearance | Half-life compared with anidulafungin [3]: longer half-life | Plasma half-life (IV) ([3]; iv): 81 h | clearance ([3]; iv): 0.0567 mL/min/kg | Half-life [4]: 81 h | Half-life [5]: 53 h | % remaining ([6]; buffer, 0 h, pH 7.4): 100% | % remaining ([6]; buffer, 1 h, pH 7.4): 105% | % remaining ([6]; buffer, 2 h, pH 7.4): 103% | % remaining ([6]; buffer, 4 h, pH 7.4): 107% | % remaining ([6]; buffer, 8 h, pH 7.4): 101% | % remaining ([6]; buffer, 21 h, pH 7.4): 96.3% | % remaining ([6]; buffer, 44 h, pH 7.4): 96.1% | % remaining ([7]; monkey, plasma, 0 h): 100% | % remaining ([7]; monkey, plasma, 1 h): 109% | % remaining ([7]; monkey, plasma, 2 h): 110% | % remaining ([7]; monkey, plasma, 4 h): 143% | % remaining ([7]; monkey, plasma, 8 h): 115% | % remaining ([7]; monkey, plasma, 21 h): 104% | % remaining ([7]; monkey, plasma, 44 h): 93.5% | solubility ([8]; 90% Water:10% glycerol): >102.3 mg/mL | solubility ([8]; Acetate buffer (0.01M, pH 4.5)): >145 mg/mL | solubility ([8]; Acetate buffer (0.01M, pH 5.5)): >141 mg/mL | solubility ([8]; Sterile Water for injection): >142 mg/mL | solubility ([8]; Tris buffer (0.01M, pH 8.5)): >138 mg/mL | Aqueous solubility compared with anidulafungin ([8]; variety of aqueous mediums): dramatically greater aqueous solubility than anidulafungin | Half-life [9]: 40 h | % remaining ([10]; human, plasma, 0 h): 100% | % remaining ([10]; human, plasma, 1 h): 98.5% | % remaining ([10]; human, plasma, 2 h): 101% | % remaining ([10]; human, plasma, 4 h): 125% | % remaining ([10]; human, plasma, 8 h): 97.5% | % remaining ([10]; human, plasma, 21 h): 95.7% | % remaining ([10]; human, plasma, 44 h): 93.3%
